Legend:
Test in all cases: Minimum Inhibitory Concentration (MIC) growth test
Format in all cases: cell-based
[1] = system: Escherichia coli, ATCC 8739; parameters: key to growth of organisms: − = no growth; + = low growth; ++ = moderate growth; +++ = high growth
Description: (§1) This example intends to analyze the microbial activity of the mixture of invention compared to the individual activity of the mixture components using the methodology that determines the minimal concentration of the substance or mixture that inhibits microorganism growth.
(§2) The tested micro-organisms were: • Staphylococcus aureus, ATCC 6538 • Escherichia coli, ATCC 8739 • Pseudomonas aeruginosa, ATCC 9027 • Burkholderia cepacia, ATCC 25416 • Candida albicans, ATCC 10231 • Aspergillus brasiliensis, ATCC 16404
(§3) The samples of the table above were initially prepared with an initial concentration of 3% based on their solubility in water, and then diluted to achieve the following concentrations: 1.5%; 0.75%; 0.375%; 0.1875%; 0.09375%.
(§4) The dilutions were obtained as follows: (a) to a first test tube containing 5 mL of tripticase soy broth (TSB), 5 mL of 3% concentration solution were added and the mixture was vortexed. 5 mL of the contents of this tube were removed and added to a second tube containing 5 mL of TSB and the mixture was vortexed. This procedure was repeated until obtaining the various concentrations.
(§5) The tested organisms were prepared as typical organism inoculants, under the form of a saline suspension. The concentration of bacterial inoculants was approximately 1×10^6 cfu/mL (“colony-forming unit per milliliter”). The concentration of fungal inoculants was approximately 1×10^5 spores/mL. In the sequence, each sample solution was inoculated with 0.1 mL of organism inoculum and vortexed. The tubes containing bacteria were incubated for 24 hours at 35° C. and the tubes containing fungi were incubated for 48 hours at 25° C.
(§6) An aliquot of 0.1 mL from these tubes was transferred to a tube having 9 mL of Letheen broth containing neutralizing agents. These Letheen tubes were again incubated for 48 hours with Letheen under incubation temperature for bacteria or fungi. Then, a swab previously wet with TSB was put in contact with sample solutions with concentrations 1.5%; 0.75%; 0.375%; 0.1875% and 0.09375%, and then they were swiped over the surface of culture plates (for bacteria: Letheen agar, AOAC—Association of Official Analytical Chemists; for fungi: Mycophil® agar of low pH with Tween® 20 polysorbate surfactant).

[2] = system: Staphylococcus aureus, ATCC 6538; parameters: key to growth of organisms: − = no growth; + = low growth; ++ = moderate growth; +++ = high growth
Description: as §1, §2, §3, §4, §5, §6

[3] = system: Burkholderia cepacia, ATCC 25416; parameters: key to growth of organisms: − = no growth; + = low growth; ++ = moderate growth; +++ = high growth
Description: as §1, §2, §3, §4, §5, §6

[4] = system: Candida albicans, ATCC 10231; parameters: key: − = no growth; + = low growth; ++ = moderate growth; +++ = high growth
Description: as §1, §2, §3, §4, §5, §6

[5] = system: Pseudomonas aeruginosa, ATCC 9027; parameters: key: − = no growth; + = low growth; ++ = moderate growth; +++ = high growth
Description: as §1, §2, §3, §4, §5, §6

[6] = system: Aspergillus brasiliensis, ATCC 16404; parameters: key: − = no growth; + = low growth; ++ = moderate growth; +++ = high growth
Description: as §1, §2, §3, §4, §5, §6

## OCCCc1ccccc1 [Sample 1, Phenylpropanol]
[1]; concentration of 1.5%
  inhibition of growth (in words): not able to inhibit the growth
[1]; sample concentration 0.09375%
  growth of organisms: +
[1]; sample concentration 0.1875%
  growth of organisms: +
[1]; sample concentration 0.375%
  growth of organisms: +
[1]; sample concentration 0.75%
  growth of organisms: +
[1]; sample concentration 1.5%
  growth of organisms: +
[2]; concentration of 1.5%
  inhibition of growth (in words): not able to inhibit the growth
[2]; sample concentration 0.09375%
  growth of organisms: +
[2]; sample concentration 0.1875%
  growth of organisms: +
[2]; sample concentration 0.375%
  growth of organisms: +
[2]; sample concentration 0.75%
  growth of organisms: +
[2]; sample concentration 1.5%
  growth of organisms: +
[3]; concentration of 1.5%
  inhibition of growth (in words): not able to inhibit the growth
[3]; sample concentration 0.09375%
  growth of organisms: +
[3]; sample concentration 0.1875%
  growth of organisms: +
[3]; sample concentration 0.375%
  growth of organisms: +
[3]; sample concentration 0.75%
  growth of organisms: +
[3]; sample concentration 1.5%
  growth of organisms: +
[4]; sample concentration 0.09375%
  growth of organisms: +
[4]; sample concentration 0.1875%
  growth of organisms: +
[4]; sample concentration 0.375%
  growth of organisms: +
[4]; sample concentration 0.75%
  growth of organisms: −
[4]; sample concentration 1.5%
  growth of organisms: −
[5]; sample concentration 0.09375%
  growth of organisms: +
[5]; sample concentration 0.1875%
  growth of organisms: +
[5]; sample concentration 0.375%
  growth of organisms: +
[5]; sample concentration 0.75%
  growth of organisms: +
[5]; sample concentration 1.5%
  growth of organisms: −
[6]; sample concentration 0.09375%
  growth of organisms: +
[6]; sample concentration 0.1875%
  growth of organisms: +
[6]; sample concentration 0.375%
  growth of organisms: +
[6]; sample concentration 0.75%
  growth of organisms: −
[6]; sample concentration 1.5%
  growth of organisms: −

— patent US10123541B2, “Biocidal mixture, use of biocidal mixture and compositions comprising a biocidal mixture” (ISP Investments LLC, priority 2014, dated 2018)
